From patent US20230002320A1, “COMPOUNDS AND COMPOSITIONS FOR TREATING CONDITIONS ASSOCIATED WITH STING ACTIVITY” (IFM Due, Inc., priority 2019, published 2023) come the findings set out here.

The term EC50 denotes the concentration at which the effect is half-maximal. Low readings indicate higher potency in that assay, high ones lower potency in that assay.

The assay deals with hSTING (Homo sapiens, UniProt Q86WV6). The assay can be described thus: STING reporter assay (luciferase) in THP1-Dual KO-IFNAR2 cells activated with 2'3' cGAMP. In kind it is cell-based. Conditions: 15 μM 2'3' cGAMP, 24 h. The protocol: STING pathway activation by the compounds described herein was measured using THP1-Dual™ cells (KO-IFNAR2).
Sequence of hSTING (Q86WV6 whole entry R71H/G230A/H232R/R293Q, form open): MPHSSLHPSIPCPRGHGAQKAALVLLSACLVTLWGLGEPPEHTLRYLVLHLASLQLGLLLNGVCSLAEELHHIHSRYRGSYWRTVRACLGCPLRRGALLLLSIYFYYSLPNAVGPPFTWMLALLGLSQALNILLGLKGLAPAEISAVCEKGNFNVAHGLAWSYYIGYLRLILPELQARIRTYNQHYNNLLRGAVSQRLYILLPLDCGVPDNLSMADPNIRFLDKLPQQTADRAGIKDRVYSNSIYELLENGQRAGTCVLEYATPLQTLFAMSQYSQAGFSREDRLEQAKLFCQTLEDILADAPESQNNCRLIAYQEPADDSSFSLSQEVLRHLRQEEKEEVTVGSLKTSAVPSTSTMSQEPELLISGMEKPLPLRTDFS
THP1-Dual™ KO-IFNAR2 Cells (obtained from invivogen) were maintained in RPMI, 10% FCS, 5 ml P/S, 2 mM L-glut, 10 mM Hepes, and 1 mM sodium pyruvate. Compounds were spotted in empty 384 well tissue culture plates (Greiner 781182) by Echo for a final concentration of 0.0017-100 μM. Cells were plated into the TC plates at 40 μL per well, 2×10E6 cells/mL. For activation with STING ligand, 2′3′ cGAMP (MW 718.38, obtained from Invivogen), was prepared in Optimem media.
The following solutions were prepared for each 1×384 plate: • Solution A: 2 mL Optimem with one of the following stimuli: • 60 uL of 10 mM 2′3′ cGAMP ->150 μM stock • Solution B: 2 mL Optimem with 60 μL Lipofectamine 2000->Incubate 5 min at RT
2 mL of solution A and 2 ml Solution B was mixed and incubated for 20 min at room temperature (RT). 20 uL of transfection solution (A+B) was added on top of the plated cells, with a final 2′3′ cGAMP concentration of 15 μM. The plates were then centrifuged immediately at 340 g for 1 minute, after which they were incubated at 37° C., 5% CO2, >98% humidity for 24 h. Luciferase reporter activity was then measured. EC50 values were calculated by using standard methods known in the art.
Luciferase reporter assay: 10 μL of supernatant from the assay was transferred to white 384-plate with flat bottom and squared wells. one pouch of QUANTI-Luc™ Plus was dissolved in 25 mL of water. 100 μL of QLC Stabilizer per 25 mL of QUANTI-Luc™ Plus solution was added. 50 μL of QUANTI-Luc™ Plus/QLC solution per well was then added. Luminescence was measured on a Platereader (e.g., Spectramax I3X (Molecular Devices GF3637001)).
Luciferase reporter activity was then measured. EC50 values were calculated by using standard methods known in the art.
Luciferase reporter assay: 10 μL of supernatant from the assay was transferred to white 384-plate with flat bottom and squared wells, one pouch of QUANTI-Luc™ Plus was dissolved in 25 mL of water. 100 μL of QLC Stabilizer per 25 mL of QUANTI-Luc™ Plus solution was added. 50 μL of QUANTI-Luc™ Plus/QLC solution per well was then added. Luminescence is measured on a Platereader (e.g., Spectramax I3X (Molecular Devices GF3637001)).
(In general: A reporter such as luciferase makes a cellular process visible.)
`O=C(Nc1ccc(C(F)(F)F)cc1)Nc1c[nH]c2ccc(-c3ccccc3)cc12` [Compound 101, 1-(5-phenyl-1H-indol-3-yl)-3-(4-(trifluoromethyl)phenyl)urea] showed an EC50 of 200 to 1000 nM.

Turning to `CC(C)n1cc(-c2ccc3[nH]cc(NC(=O)Nc4ccc(C(F)(F)F)cc4)c3c2)cn1` [Compound 104, 1-(5-(1-isopropyl-1H-pyrazol-4-yl)-1H-indol-3-yl)-3-(4-(trifluoromethyl)phenyl)urea], the EC50 was in the range of 40 to 200 nM.

Compound `O=C(Nc1ccc(C(F)(F)F)cc1)Nc1c[nH]c2ccc(-c3ccc(CO)c(F)c3)cc12` [Compound 127, 1-(5-(3-fluoro-4-(hydroxymethyl)phenyl)-1H-indol-3-yl)-3-(4-(trifluoromethyl)phenyl)urea] had an EC50 of 200 to 1000 nM.

As to `CCCCCCc1ccc(-c2ccc3[nH]cc(NC(=O)Nc4ccc(C(F)(F)F)cc4)c3c2)cc1` [Compound 211, 1-(5-(4-hexylphenyl)-1H-indol-3-yl)-3-(4-(trifluoromethyl)phenyl)urea], the EC50 lay in the range of 200 to 1000 nM.

In turn, `O=C(Nc1ccc(C(F)(F)F)cc1)Nc1c[nH]c2cc(F)c(-c3cnn(C(F)F)c3)cc12` [Compound 212, 1-(5-(1-(difluoromethyl)-1H-pyrazol-4-yl)-6-fluoro-1H-indol-3-yl)-3-(4-(trifluoromethyl)phenyl)urea] showed an EC50 of 40 to 200 nM.

`CC(C)n1cc(-c2cc3c(NC(=O)Nc4ccc(C(F)(F)F)cc4)c[nH]c3cc2F)cn1` [Compound 213]: the EC50 is 200 to 1000 nM.

In turn, `Cn1ccc(-c2ccc3[nH]cc(NC(=O)Nc4ccc(C(F)(F)F)cc4)c3c2)n1` [Compound 214, 1-(5-(1-methyl-1H-pyrazol-3-yl)-1H-indol-3-yl)-3-(4-(trifluoromethyl)phenyl)urea] had an EC50 of 1000 to 5000 nM.

Regarding `CN(C)C(=O)c1ccc(-c2ccc3[nH]cc(NC(=O)Nc4ccc(C(F)(F)F)cc4)c3c2)c(F)c1` [Compound 215], the EC50 lay in the range of 200 to 1000 nM.

Regarding `N#Cc1csc(-c2ccc3[nH]cc(NC(=O)Nc4ccc(C(F)(F)F)cc4)c3c2)c1` [Compound 216], the EC50 lay in the range of 40 to 200 nM.

`CC(C)(C#N)c1ccc(-c2ccc3[nH]cc(NC(=O)Nc4ccc(C(F)(F)F)cc4)c3c2)cc1` [Compound 217] gave an EC50 of 5000 to 100000 nM.

The compound `O=C(Nc1ccc(C(F)(F)F)cc1)Nc1c[nH]c2ccc(-c3ccc(OC(F)F)cc3)cc12` [Compound 218] yielded an EC50 of 200 to 1000 nM.

With `CN(C)C(=O)c1ccc(-c2ccc3[nH]cc(NC(=O)Nc4ccc(C(F)(F)F)cc4)c3c2)cc1` [Compound 219], the EC50 fell in the range of 200 to 1000 nM.

The compound `O=C(Nc1ccc(C(F)(F)F)cc1)Nc1c[nH]c2ccc(-c3cccc(OC(F)(F)F)c3)cc12` [Compound 220] gave a concentration for a half-maximal effect (EC50) of 200 to 1000 nM.

In turn, `O=C(Nc1ccc(C(F)(F)F)cc1)Nc1c[nH]c2ccc(-c3cccc4ncccc34)cc12` [Compound 221, 1-(5-(quinolin-5-yl)-1H-indol-3-yl)-3-(4-(trifluoromethyl)phenyl)urea] came in with an EC50 of 200 to 1000 nM.

The compound `O=C(Nc1ccc(C(F)(F)F)cc1)Nc1c[nH]c2ccc(-c3c(F)cccc3F)cc12` [Compound 222] showed an EC50 of 1000 to 5000 nM.

`CC(C)c1ccc(-c2ccc3[nH]cc(NC(=O)Nc4ccc(C(F)(F)F)cc4)c3c2)cc1` [Compound 223, 1-(5-(4-isopropylphenyl)-1H-indol-3-yl)-3-(4-(trifluoromethyl)phenyl)urea]: the EC50 is 200 to 1000 nM.

For the compound `O=C(Nc1ccc(C(F)(F)F)cc1)Nc1c[nH]c2ccc(-c3cccc4cccnc34)cc12` [Compound 224, 1-(5-(quinolin-8-yl)-1H-indol-3-yl)-3-(4-(trifluoromethyl)phenyl)urea], the EC50 lay in the range of 1000 to 5000 nM.

For the compound `COc1cccc(-c2ccc3[nH]cc(NC(=O)Nc4ccc(C(F)(F)F)cc4)c3c2)c1` [Compound 225], the EC50 fell in the range of 200 to 1000 nM.

For the compound `O=C(Nc1ccc(C(F)(F)F)cc1)Nc1c[nH]c2ccc(-c3cccc(Cl)c3)cc12` [Compound 226], the half-maximal effective concentration (EC50) lay in the range of 200 to 1000 nM.

`O=C(Nc1ccc(C(F)(F)F)cc1)Nc1c[nH]c2ccc(-c3cc(Cl)nc(Cl)c3)cc12` [Compound 227] displayed an EC50 of 200 to 1000 nM.

`COCc1cncc(-c2ccc3[nH]cc(NC(=O)Nc4ccc(C(F)(F)F)cc4)c3c2)c1` [Compound 228] yielded an EC50 of 200 to 1000 nM.

`O=C(Nc1ccc(C(F)(F)F)cc1)Nc1c[nH]c2ccc(-c3cncc(Cl)c3)cc12` [Compound 229] registered an EC50 of 200 to 1000 nM.

Turning to `O=C(Nc1ccc(C(F)(F)F)cc1)Nc1c[nH]c2ccc(-c3cccnc3)cc12` [Compound 230], the EC50 was in the range of 200 to 1000 nM.

Turning to `CC(=O)c1ccc(-c2ccc3[nH]cc(NC(=O)Nc4ccc(C(F)(F)F)cc4)c3c2)s1` [Compound 231], the 50% effective concentration (EC50) lay in the range of 200 to 1000 nM.

In turn, `N#CCCn1cc(-c2ccc3[nH]cc(NC(=O)Nc4ccc(C(F)(F)F)cc4)c3c2)cn1` [Compound 232] displayed a half-maximal effective concentration (EC50) of 200 to 1000 nM.

`O=C(Nc1ccc(C(F)(F)F)cc1)Nc1c[nH]c2ccc(-c3cnn(-c4ccccc4)c3)cc12` [Compound 234] had an EC50 of 40 to 200 nM.

As for `O=C(Nc1ccc(C(F)(F)F)cc1)Nc1c[nH]c2ccc(-c3cnn(CC4CC4)c3)cc12` [Compound 235], the EC50 lay within 40 to 200 nM.

Turning to `COCCn1cc(-c2ccc3[nH]cc(NC(=O)Nc4ccc(C(F)(F)F)cc4)c3c2)cn1` [Compound 236], the EC50 is 200 to 1000 nM.

Compound `CCn1cc(-c2ccc3[nH]cc(NC(=O)Nc4ccc(C(F)(F)F)cc4)c3c2)cn1` [Compound 237] yielded an EC50 of 40 to 200 nM.

For `CCCc1ccc(-c2ccc3[nH]cc(NC(=O)Nc4ccc(C(F)(F)F)cc4)c3c2)cc1` [Compound 238], the EC50 lay in the range of 1000 to 5000 nM.

The compound `O=C(Nc1ccc(C(F)(F)F)cc1)Nc1c[nH]c2ccc(-c3ccc(Cl)c(Cl)c3)cc12` [Compound 239] returned an EC50 of 1000 to 5000 nM.

For `O=C(Nc1ccc(C(F)(F)F)cc1)Nc1c[nH]c2ccc(-c3cc(F)cc(F)c3)cc12` [Compound 240], the EC50 is 200 to 1000 nM.

The compound `O=C(Nc1ccc(C(F)(F)F)cc1)Nc1c[nH]c2ccc(-c3ccc(F)c(F)c3)cc12` [Compound 241] returned an EC50 of 1000 to 5000 nM.

Compound `O=C(Nc1ccc(C(F)(F)F)cc1)Nc1c[nH]c2ccc(-c3ccc(F)cc3F)cc12` [Compound 242] came in with an EC50 of 1000 to 5000 nM.

With `CC(C)n1cc(-c2ccc3[nH]cc(NC(=O)Nc4ccc(C5CCCCC5)nc4)c3c2)cn1` [Compound 243], the half-maximal effective concentration (EC50) is 200 to 1000 nM.

`Nc1cc(-c2ccc3[nH]cc(NC(=O)Nc4ccc(C(F)(F)F)cc4)c3c2)ccn1` [Compound 274, 1-(5-(2-aminopyridin-4-yl)-1H-indol-3-yl)-3-(4-(trifluoromethyl)phenyl)urea] came in with a half-maximal effective concentration (EC50) of 1000 to 5000 nM.

`O=C(Nc1ccc(C(F)(F)F)cc1)Nc1c[nH]c2ccc(-c3ccc(CO)cc3)cc12` [Compound 282, 1-(5-(4-(hydroxymethyl)phenyl)-1H-indol-3-yl)-3-(4-(trifluoromethyl)phenyl)urea] gave a 50% effective concentration (EC50) of 1000 to 5000 nM.

`CC(C)(C)Oc1ccc(-c2ccc3[nH]cc(NC(=O)Nc4ccc(C(F)(F)F)cc4)c3c2)cc1` [Compound 288, 1-(5-(4-(tert-butoxy)phenyl)-1H-indol-3-yl)-3-(4-(trifluoromethyl)phenyl)urea] gave an EC50 of 200 to 1000 nM.

Take `CC(C)(O)Cn1cc(-c2ccc3[nH]cc(NC(=O)Nc4ccc(C(F)(F)F)cc4)c3c2)cn1` [Compound 297, 1-(5-(1-(2-hydroxy-2-methylpropyl)-1H-pyrazol-4-yl)-1H-indol-3-yl)-3-(4-(trifluoromethyl)phenyl)urea]: the EC50 was 200 to 1000 nM.
